From PubChem BioAssay (NCI)
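Grown in 96-well plates, cells were treated for 48 hours with each compound at five concentrations. Insufficient inhibition: endpoint recorded as highest concentration tested. GI50: concentration for 50% inhibition of growth. TGI: total growth inhibition.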

Key:
Assay in all cases: inhibition of tumour cell growth, NCI panel, 48 h
[1] = test system: UO-31 renal
[2] = test system: OVCAR-4 ovarian
[3] = test system: SK-MEL-28 melanoma
[4] = test system: SR leukemia
[5] = test system: HOP-92 NSCLC
[6] = test system: UACC-62 melanoma
[7] = test system: HCT-15 colon
[8] = test system: NCI-H23 lung
[9] = test system: SW-620 colon
[10] = test system: SK-MEL-5 melanoma
[11] = test system: SF-268 CNS
[12] = test system: CCRF-CEM leukemia
[13] = test system: NCI-H522 lung
[14] = test system: IGROV1 ovarian
[15] = test system: MOLT-4 leukemia
[16] = test system: HT29 colon
[17] = test system: COLO 205 colon
[18] = test system: U251 CNS
[19] = test system: CAKI-1 renal
[20] = test system: A549 NSCLC
[21] = test system: HCC-2998 colon
[22] = test system: BT-549 breast
[23] = test system: NCI/ADR-RES ovarian
[24] = test system: HS 578T breast
[25] = test system: 786-0 renal
[26] = test system: RPMI-8226 leukemia
[27] = test system: UACC-257 melanoma
[28] = test system: K-562 leukemia
[29] = test system: NCI-H460 lung
[30] = test system: SNB-75 CNS
[31] = test system: OVCAR-8 ovarian
[32] = test system: OVCAR-3 ovarian
[33] = test system: SN12C renal
[34] = test system: A498 renal
[35] = test system: PC-3 prostate
[36] = test system: HL-60(TB) leukemia
[37] = test system: SF-539 CNS
[38] = test system: MDA-MB-435
[39] = test system: MALME-3M melanoma
[40] = test system: EKVX NSCLC
[41] = test system: MDA-MB-468 breast
[42] = test system: KM12 colon
[43] = test system: MCF7 breast
[44] = test system: SF-295 CNS
[45] = test system: HCT-116 colon
[46] = test system: SK-MEL-2 melanoma
[47] = test system: DU-145 prostate
[48] = test system: LOX IMVI melanoma
[49] = test system: TK-10 renal
[50] = test system: M14 melanoma
[51] = test system: SK-OV-3 ovarian
[52] = test system: ACHN renal
[53] = test system: HOP-62 NSCLC
[54] = test system: MDA-MB-231 breast
[55] = test system: NCI-H226 lung
[56] = test system: OVCAR-5 ovarian
[57] = test system: RXF 393 renal
[58] = test system: SNB-19 CNS
[59] = test system: T-47D breast

In the case of COc1ccc(/C=C/c2nc3ccccc3c(=O)n2CC(=O)Nc2ccccc2)cc1, the GI50 [1] is reported as 1.44 µM, the TGI [1] is reported as 3.64 µM and the GI50 [2] is reported as 0.734 µM. It also gave a GI50 [3] of over 100 µM, a TGI [3] of over 100 µM and a GI50 [4] of over 100 µM. It also gave a TGI [4] of over 100 µM, a GI50 [5] of 2.78 µM and a TGI [5] of 13.3 µM. The GI50 [6] was over 62.4 µM, the TGI [6] was over 100 µM and the GI50 [7] was over 100 µM. The TGI [7] was over 100 µM, the GI50 [8] was 6.01 µM and the TGI [8] was over 62.4 µM. The GI50 [9] was over 21.3 µM, the TGI [9] was over 100 µM and the GI50 [10] was over 91.4 µM. The TGI [10] was over 100 µM, the GI50 [11] was 19.1 µM and the TGI [11] was over 100 µM. For the same compound, the GI50 [12] was over 100 µM, the TGI [12] was over 100 µM and the GI50 [13] was 16.8 µM. For the same compound, the TGI [13] was over 100 µM, the GI50 [14] was 12.6 µM and the TGI [14] was over 100 µM. For the same compound, the GI50 [15] was over 100 µM, the TGI [15] was over 100 µM and the GI50 [16] was over 100 µM. For the same compound, the TGI [16] was over 100 µM, the GI50 [17] was over 37.3 µM and the TGI [17] was over 77.7 µM. The GI50 [18] was 0.972 µM, the TGI [18] was 10.9 µM and the GI50 [19] was 1.7 µM. It also gave a TGI [19] of over 23.9 µM, a GI50 [20] of 0.731 µM and a TGI [20] of over 42.7 µM. It also gave a GI50 [21] of over 100 µM, a TGI [21] of over 100 µM and a GI50 [22] of over 74.6 µM. The TGI [22] was over 100 µM, the GI50 [23] was 4.64 µM and the TGI [23] was over 100 µM. It also gave a GI50 [24] of 2.79 µM, a TGI [24] of over 92.5 µM and a GI50 [25] of 1.19 µM. It also gave a TGI [25] of 3.18 µM, a GI50 [26] of over 100 µM and a TGI [26] of over 100 µM. For the same compound, the GI50 [27] was over 85.1 µM, the TGI [27] was over 100 µM and the GI50 [28] was over 100 µM. The TGI [28] was over 100 µM, the GI50 [29] was 2.25 µM and the TGI [29] was over 100 µM. It also gave a GI50 [30] of 1.27 µM, a TGI [30] of 4.97 µM and a GI50 [31] of 4.74 µM. It also gave a TGI [31] of over 100 µM, a GI50 [32] of 3.91 µM and a TGI [32] of over 100 µM. The GI50 [33] was 1.82 µM, the TGI [33] was over 36.6 µM and the GI50 [34] was 2.23 µM. It also gave a TGI [34] of 5.2 µM, a GI50 [35] of over 100 µM and a TGI [35] of over 100 µM. The GI50 [36] was over 100 µM, the TGI [36] was over 100 µM and the GI50 [37] was 3.42 µM. The TGI [37] was 14.5 µM, the GI50 [38] was over 93.4 µM and the TGI [38] was over 100 µM. It also gave a GI50 [39] of 5.2 µM, a TGI [39] of 55.9 µM and a GI50 [40] of over 69.4 µM. It also gave a TGI [40] of over 100 µM, a GI50 [41] of 6.23 µM and a TGI [41] of over 53.7 µM. For the same compound, the GI50 [42] was over 100 µM, the TGI [42] was over 100 µM and the GI50 [43] was over 26 µM. It also gave a TGI [43] of over 100 µM, a GI50 [44] of 2.48 µM and a TGI [44] of 30.8 µM. The GI50 [45] was 1.26 µM, the TGI [45] was over 39.4 µM and the GI50 [46] was over 77.8 µM. It also gave a TGI [46] of over 100 µM, a GI50 [47] of over 100 µM and a TGI [47] of over 100 µM. It also gave a GI50 [48] of 4.38 µM, a TGI [48] of over 100 µM and a GI50 [49] of 2.05 µM. For the same compound, the TGI [49] was 5.43 µM, the GI50 [50] was 27 µM and the TGI [50] was over 51 µM. For the same compound, the GI50 [51] was 2.98 µM, the TGI [51] was 18.7 µM and the GI50 [52] was 0.718 µM. The TGI [52] was 2.49 µM, the GI50 [53] was 4.31 µM and the TGI [53] was 19.2 µM. It also gave a GI50 [54] of 2.01 µM, a TGI [54] of 7.54 µM and a GI50 [55] of 2.42 µM. It also gave a TGI [55] of 16.4 µM, a GI50 [56] of 6.47 µM and a TGI [56] of over 100 µM. For the same compound, the GI50 [57] was 2.23 µM, the TGI [57] was 10.6 µM and the GI50 [58] was 3.74 µM. It also gave a TGI [58] of over 73.9 µM, a GI50 [59] of 1.8 µM and a TGI [59] of over 28.9 µM.
